Data set [1] concerns BE(2)-C. Nature of the data set: Inhibition of colony formation in human BE2C cells at 100 nM incubated for 36 hrs by gentian violet staining based assay relative to control. The class given is functional.
For data set [2], the system named is BE(2)-C. The data set is described as follows: Induction of cell cycle arrest in human BE2C cells assessed as accumulation at G2/M phase at 100 nM incubated for 24 hrs by RNase/PI staining based flow cytometry (reference value: 31 %). The class given is functional. Background: Flow cytometry measures light scatter and fluorescence of single cells or particles in a stream.

The test system of data set [3] is BE(2)-C. The data set is described as follows: Antitumor activity against human BE2C cells xenografted in nude mouse assessed as tumor growth inhibition at 25 mg/kg, ip treated for every 3 days relative to control. It is filed as functional. The conditions noted are these: 72 h, time 3 day, read-out: TGI. On the technique in general: In xenograft studies the graft and the host belong to different species.

In data set [4] the test system is BE(2)-C. The data set is described as follows: Upregulation of cleaved PARP-1 expression in human BE2C cells at 25 to 100 nM by Western blot analysis. The class given is functional, cell-based. The conditions noted are these: dose 25-100 nM. Background: A western blot detects proteins with antibodies after separation by electrophoresis.
The test system of data set [5] is BE(2)-C. The data set is described as follows: Induction of apoptosis in human BE2C cells assessed as viable cells at 100 nM incubated for 48 hrs by annexin V-FITC/PI staining based flow cytometry (reference value: 82.16 %). The following applies: read-out: Activity. The class given is functional.
Data set [6] has as its target Tubulin (Sus scrofa, UniProt P02554+P02550). The data set is described as follows: (§1) Inhibition of tubulin polymerization of pig brain by absorbance based assay.
Data set [7] addresses Tubulin (Sus scrofa) (UniProt P02554+P02550). Described as §1. The conditions noted are these: dose 0.4-12 µM.
Data set [8] has as its system BE(2)-C. The data set is described as follows: Upregulation of acetylated H3 expression in human BE2C cells by Western blot analysis. The class given is functional, cell-based. The conditions noted are these: dose 25-100 nM.
The test system of data set [9] is BE(2)-C. Nature of the data set: Induction of apoptosis in human BE2C cells assessed as early apoptotic cells at 25 nM incubated for 48 hrs by annexin V-FITC/PI staining based flow cytometry (reference value: 4.28 %). The class given is functional.
Data set [10] has as its target T1, Protein deacetylase HDAC6 (Homo sapiens, UniProt Q9UBN7).
T1 sequence (Q9UBN7 whole entry): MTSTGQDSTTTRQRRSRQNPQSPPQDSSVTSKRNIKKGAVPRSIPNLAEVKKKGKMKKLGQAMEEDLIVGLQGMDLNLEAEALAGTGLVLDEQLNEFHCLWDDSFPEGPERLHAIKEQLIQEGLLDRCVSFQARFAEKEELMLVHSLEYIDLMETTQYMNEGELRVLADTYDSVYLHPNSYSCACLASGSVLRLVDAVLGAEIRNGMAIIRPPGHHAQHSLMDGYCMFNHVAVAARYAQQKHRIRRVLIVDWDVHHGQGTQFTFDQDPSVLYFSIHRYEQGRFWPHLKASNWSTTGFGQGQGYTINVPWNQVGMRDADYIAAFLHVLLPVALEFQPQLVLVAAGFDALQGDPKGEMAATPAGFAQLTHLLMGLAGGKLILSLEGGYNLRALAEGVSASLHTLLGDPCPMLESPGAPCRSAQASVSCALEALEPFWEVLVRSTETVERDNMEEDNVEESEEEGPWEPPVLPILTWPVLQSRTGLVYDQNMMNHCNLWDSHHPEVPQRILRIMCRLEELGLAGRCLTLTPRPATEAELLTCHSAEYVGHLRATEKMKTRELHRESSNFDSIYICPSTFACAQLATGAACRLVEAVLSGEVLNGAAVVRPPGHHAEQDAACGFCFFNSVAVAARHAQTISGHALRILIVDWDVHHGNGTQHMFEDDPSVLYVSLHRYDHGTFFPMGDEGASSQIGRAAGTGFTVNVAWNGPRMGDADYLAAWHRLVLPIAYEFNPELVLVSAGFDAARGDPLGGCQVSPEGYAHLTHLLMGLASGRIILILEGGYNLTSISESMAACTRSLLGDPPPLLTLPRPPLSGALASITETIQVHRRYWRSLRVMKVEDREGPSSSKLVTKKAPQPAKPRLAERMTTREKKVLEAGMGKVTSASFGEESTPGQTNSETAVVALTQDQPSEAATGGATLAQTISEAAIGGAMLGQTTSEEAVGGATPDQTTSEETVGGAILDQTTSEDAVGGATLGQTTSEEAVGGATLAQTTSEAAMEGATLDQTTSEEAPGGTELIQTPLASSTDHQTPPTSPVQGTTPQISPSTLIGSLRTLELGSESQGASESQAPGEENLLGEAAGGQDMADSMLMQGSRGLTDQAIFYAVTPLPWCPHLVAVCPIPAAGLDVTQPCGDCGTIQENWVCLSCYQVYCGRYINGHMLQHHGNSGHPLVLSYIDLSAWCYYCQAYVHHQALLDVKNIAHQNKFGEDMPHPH
Nature of the data set: Inhibition of HDAC6 (unknown origin).

A short description of data set [11]: Metabolic stability in human liver microsomes assessed as compound remaining incubated for 20 mins. It is filed as ADME, Microsome. The conditions noted are these: microsomes, 20 min.

The results in this text go back to ChEMBL document CHEMBL5325505, “Discovery of chiral 1,4-diarylazetidin-2-one-based hydroxamic acid derivatives as novel tubulin polymerization inhibitors with histone deacetylase inhibitory activity” (Bioorg Med Chem, 2023).

Active and inactive are the calls of the source. The rule behind the calls is not given here.

Tubulin (Sus scrofa), sequence (P02550 whole entry, looked up): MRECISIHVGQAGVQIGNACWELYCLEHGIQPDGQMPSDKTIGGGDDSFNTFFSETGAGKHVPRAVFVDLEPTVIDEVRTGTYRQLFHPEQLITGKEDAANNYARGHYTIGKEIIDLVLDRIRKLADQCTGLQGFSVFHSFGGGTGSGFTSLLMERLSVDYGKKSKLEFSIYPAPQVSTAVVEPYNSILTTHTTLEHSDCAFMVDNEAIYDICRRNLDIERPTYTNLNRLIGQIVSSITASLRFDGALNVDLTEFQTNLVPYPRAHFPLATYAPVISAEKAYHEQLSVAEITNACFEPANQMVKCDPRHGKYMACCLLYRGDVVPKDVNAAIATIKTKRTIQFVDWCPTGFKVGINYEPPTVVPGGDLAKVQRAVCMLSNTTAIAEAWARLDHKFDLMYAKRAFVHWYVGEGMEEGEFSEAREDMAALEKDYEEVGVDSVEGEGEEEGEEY
Tubulin (Sus scrofa), sequence (P02554 whole entry, looked up): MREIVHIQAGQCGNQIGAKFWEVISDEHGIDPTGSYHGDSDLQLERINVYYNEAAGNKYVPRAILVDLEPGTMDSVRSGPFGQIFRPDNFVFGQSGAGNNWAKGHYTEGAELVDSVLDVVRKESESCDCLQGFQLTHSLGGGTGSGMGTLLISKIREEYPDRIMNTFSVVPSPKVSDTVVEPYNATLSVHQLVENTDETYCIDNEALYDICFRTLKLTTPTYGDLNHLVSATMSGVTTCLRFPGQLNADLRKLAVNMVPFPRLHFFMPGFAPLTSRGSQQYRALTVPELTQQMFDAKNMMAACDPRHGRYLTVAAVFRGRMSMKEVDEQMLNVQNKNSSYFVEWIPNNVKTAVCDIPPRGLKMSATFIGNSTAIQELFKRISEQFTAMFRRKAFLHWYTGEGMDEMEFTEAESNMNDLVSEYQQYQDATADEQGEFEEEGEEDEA

A word on the inhibition: it is the drop in the measured response relative to a control, in per cent. Usually IC50 stands for the midpoint of a concentration-inhibition curve. `COc1ccc([C@H]2[C@H](COC(=O)c3ccc(C(=O)NO)cc3)C(=O)N2c2cc(OC)c(OC)c(OC)c2)cc1O`: 0.1 µM produced 100% inhibition in [1]. Besides, the Activity in [2] was about 77%; in [8] it was “Dose-Dependent Effect”; in data set [9], 11.81%. In addition, the inhibition in vivo at 25 mg/kg in data set [3] amounted to 67%. Further, the result in data set [4] was Active. In addition, the viability at 0.1 µM in [5] came to 29.2%. Further, the IC50 in [6] worked out at 5.4 µM; in [10], 1.04 µM. Also, in data set [7], the inhibition result is “Dose-Dependent Effect”. The Stability in data set [11] is on record as 61.3%.
